The text below walks through data of patent US9663534B2, “Fused bicyclic isoxazolines as inhibitors of cholesterol ester transfer protein” (Merck Sharp & Dohme Corp., priority 2013, dated 2017).

Like-named read-outs stand apart in the source and are kept apart here.

The conditions of test [1]: patients treated with anacetrapib along with baseline statin therapy, compared with just a statin; cited from earlier work.
In test [2] the target is T1, endogenous CETP from serum (Homo sapiens, UniProt P11597).
T1 construct: yielding a concentration of approximately 15 nM endogenous CETP in the assay; from tissue; host or cells: human serum
T1 sequence (P11597 18-493): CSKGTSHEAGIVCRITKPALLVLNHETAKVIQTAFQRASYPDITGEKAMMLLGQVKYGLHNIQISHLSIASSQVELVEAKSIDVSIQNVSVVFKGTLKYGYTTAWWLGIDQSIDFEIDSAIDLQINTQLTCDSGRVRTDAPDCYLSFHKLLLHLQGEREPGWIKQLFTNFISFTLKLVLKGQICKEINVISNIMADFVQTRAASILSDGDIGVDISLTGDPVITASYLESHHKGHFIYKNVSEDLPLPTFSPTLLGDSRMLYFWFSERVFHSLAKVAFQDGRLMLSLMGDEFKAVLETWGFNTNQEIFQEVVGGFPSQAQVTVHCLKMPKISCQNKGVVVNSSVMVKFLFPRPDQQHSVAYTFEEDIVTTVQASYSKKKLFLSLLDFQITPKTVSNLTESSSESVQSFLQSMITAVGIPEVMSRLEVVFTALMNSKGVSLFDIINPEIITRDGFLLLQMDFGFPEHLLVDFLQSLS
The test is described as follows: RTA assay of CETP-catalyzed CE and TG transfer in 95% human serum (95% RTA). The test is classed as biochemical. The following applies: RTA assay in 95% human serum.

[3] abbreviates: read-out: IC50 (nM) RTA with 95% HS.

On to `COc1cc(F)c(C(C)C)cc1-c1ccc(C(F)(F)F)cc1CN1C(=O)O[C@H](c2cc(C(F)(F)F)cc(C(F)(F)F)c2)[C@@H]1C` [Anacetrapib], for which, in test [1], the “decrease of LDL-C” value is on record as 40% and the “increase of HDL-C” value is given as 138%.
Regarding `COc1ncc(-c2ccc(C(=O)O)cc2C)cc1-c1ccc(C(F)(F)F)cc1[C@@H]1CC[C@@H]2C1=NO[C@@H]2c1cc(C(F)(F)F)cc(C(F)(F)F)c1` [Example 1A, 4-(5-(2-((3S,3aR,6S)-3-(3,5-bis(trifluoromethyl)phenyl)-3a,4,5,6-tetrahydro-3H-cyclopenta[c]isoxazol-6-yl)-4-(trifluoromethyl)phenyl)-6-methoxypyridin-3-yl)-3-methylbenzoic acid], the IC50 in test [2] (read-out: IC50 RTA (95% HS)) was determined as 70 nM.
Same read-out and setting: the value for `COc1ncc(-c2ccc(C(=O)O)cc2C)cc1-c1ccc(C(F)(F)F)cc1[C@H]1CC[C@H]2C1=NO[C@H]2c1cc(C(F)(F)F)cc(C(F)(F)F)c1` [Example 1B, 4-(5-(2-((3R,3aS,6R)-3-(3,5-bis(trifluoromethyl)phenyl)-3a,4,5,6-tetrahydro-3H-cyclopenta[c]isoxazol-6-yl)-4-(trifluoromethyl)phenyl)-6-methoxypyridin-3-yl)-3-methylbenzoic acid] was 10000 nM; that for `COc1ccc(-c2ccc(C(=O)O)cc2C)cc1-c1cnc(C(F)(F)F)cc1[C@@H]1CC[C@@H]2C1=NO[C@@H]2c1cc(C(F)(F)F)cc(C(F)(F)F)c1` [Example 2A, 3′-(4-((3S,3aR,6S)-3-(3,5-bis(trifluoromethyl)phenyl)-3a,4,5,6-tetrahydro-3H-cyclopenta[c]isoxazol-6-yl)-6-(trifluoromethyl)pyridin-3-yl)-4′-methoxy-2-methyl-[1,1′-biphenyl]-4-carboxylic acid] was 1590 nM.
On the same count and under the same terms, the value for `COc1ccc(-c2ccc(C(=O)O)cc2C)cc1-c1cnc(C(F)(F)F)cc1[C@H]1CC[C@H]2C1=NO[C@H]2c1cc(C(F)(F)F)cc(C(F)(F)F)c1` [Example 2B, 3′-(4-((3R,3aS,6R)-3-(3,5-bis(trifluoromethyl)phenyl)-3a,4,5,6-tetrahydro-3H-cyclopenta[c]isoxazol-6-yl)-6-(trifluoromethyl)pyridin-3-yl)-4′-methoxy-2-methyl-[1,1′-biphenyl]-4-carboxylic acid] was 10000 nM.
As for `COc1ccc(CCC(=O)O)cc1-c1ccc(C(F)(F)F)cc1[C@@H]1CC[C@@H]2C1=NO[C@@H]2c1cc(C(F)(F)F)cc(C(F)(F)F)c1` [Example 4, 3-[2′-{(3S,3aR,6S)-3-[3,5-bis(trifluoromethyl)phenyl]-3a,4,5,6-tetrahydro-3H-cyclopenta[c]isoxazol-6-yl}-6-methoxy-4′-(trifluoromethyl)biphenyl-3-yl]propanoic acid], in test [2] (setting [3]), the IC50 worked out at 3790 nM.
The same measure, in the same setting: the figure for `COc1ccc(-c2ccc(C(=O)O)cc2C)cc1-c1ccc(C(F)(F)F)cc1[C@@H]1CC[C@@H]2C1=NO[C@@H]2c1cc(C(F)(F)F)cc(C(F)(F)F)c1` [Example 5, 2″-{(3S,3aR,6S)-3-[3,5-bis(trifluoromethyl)phenyl]-3a,4,5,6-tetrahydro-3H-cyclopenta[c]isoxazol-6-yl}-4′-methoxy-2-methyl-4″- (trifluoromethyl)-1,1′:3′,1″- terphenyl-4-carboxylic acid] is 145 nM; for `COc1ccc([C@H]2CC[C@H](C(=O)O)CC2)cc1-c1ccc(C(F)(F)F)cc1[C@@H]1CC[C@@H]2C1=NO[C@@H]2c1cc(C(F)(F)F)cc(C(F)(F)F)c1` [Example 6, trans-4-[2′-{(3S,3aR,6S)-3-[3,5-bis(trifluoromethyl)phenyl]-3a,4,5,6-tetrahydro-3H-cyclopenta[c]isoxazol-6-yl}-6-methoxy-4′-(trifluoromethyl)biphenyl-3-yl]cyclohexanecarboxylic acid] it is 383 nM; for `COc1ncc(-c2ccc(C(=O)O)cc2C)cc1-c1ccc(C(F)(F)F)cc1[C@@H]1CC[C@@H]2C1=NO[C@@H]2c1cc(F)cc(C(F)(F)F)c1` [Example 7, 4-(5-(2-((3S,3aR,6S)-3-(3-fluoro-5-(trifluoromethyl)phenyl)-3a,4,5,6-tetrahydro-3H-cyclopenta[c]isoxazol-6-yl)-4-(trifluoromethyl)phenyl)-6-methoxypyridin-3-yl)-3-methylbenzoic acid] it is 57 nM.
The same measure, in the same setting: the figure for `COc1ccc(-c2ccc(C(=O)O)cc2C)cc1-c1ccc(C(F)(F)F)cc1[C@@H]1CC[C@@H]2C1=NO[C@@H]2c1cc(F)cc(C(F)(F)F)c1` [Example 8, 2″-((3S,3aR,6S)-3-(3-fluoro-5-(trifluoromethyl)phenyl)-3a,4,5,6-tetrahydro-3H-cyclopenta[c]isoxazol-6-yl)-4′-methoxy-2-methyl-4″- (trifluoromethyl)-[1,1′:3′,1″- terphenyl]-4-carboxylic acid] is 36 nM; for `COc1ncc(-c2ccc(C(=O)O)cc2C)cc1-c1ccc(C(F)(F)F)nc1[C@@H]1CC[C@@H]2C1=NO[C@@H]2c1cc(C(F)(F)F)cc(C(F)(F)F)c1` [Example 9, 4-[2′-{3-[3,5-bis(trifluoromethyl)phenyl]-3a,4,5,6-tetrahydro-3H-cyclopenta[c]isoxazol-6-yl}-2 methoxy-6′-(trifluoromethyl)-3,3′-bipyridin-5-yl]-3-methylbenzoic acid] it is 287 nM.

The IC50 is the concentration that inhibits the measured activity by half.
